Results as given in patent publication US8058305B2, “Pyrrolidine derivatives as prostaglandin modulators” (Merck Serono SA, priority 2001, dated 2011).

Assays:
h-EP2 [1] = biological target: T1, h-EP2 (Homo sapiens, UniProt P43116); experiment: Prostaglandin EP2 receptor binding assay (3H-PGE2, SPA); details: EP2 receptor membranes, 20 nM 3H-PGE2, pH 6.0, 2 hrs at room temperature
T1 construct: expressed in transfected cells; host or cells: HEK293-EBNA
Protocol: Compounds of the invention were tested in an EP2 receptor binding assay of the following protocol. As referred to herein, the term a “standard EP2 receptor binding assay” designates the following protocol which allows the determination of the affinity of the test compounds for the EP2 receptor

h-EP2 [2] = biological target: T1, h-EP2; experiment: EP2 total cAMP assay; type: cell-based; details: HEK293-EBNA cells transfected with pCEP4-hEP2, 1 hour at 37° C.
Protocol: Compounds of the invention were tested in a total cAMP assay as follows. HEK293-EBNA cells transfected with pCEP4-hEP2 receptors were seeded in 96 well opaque plate (Costar #3917) at 4×10^4 cells per well in 100 μl of culture medium (D-MEM/F12 supplemented with 10% FBS, […] L-glutamine, and 250 μg/ml of hygromycin; all from GibcoBRL) and incubated at 37° C. After overnight incubation, the medium was removed from each well and replaced with 45 μl of assay medium consisted of phenol red free D-MEM/F-12, 0.1% BSA (GibcoBRL) and 0.1 mM3-isobutyl-1-methyl-xanthine (Sigma). After 15 minutes of incubation at 37° C., 16-16-dimethyl PGE-2 or compounds at desired concentrations in 20 μl of assay medium were added to cells and further incubated at 37° C. for 1 hour. Total cAMP (intra- and extra-cellular) was measured by using a cAMP-screen ELISA System (Tropix, #CS1000).

h-EP4 = h-EP4 (Homo sapiens, UniProt P35408); experiment: EP4 receptor binding assay (3H-PGE2, SPA); details: EP4 receptor membranes, 20 nM 3H-PGE2, pH 6.0, 2 hrs at room temperature
Chain of h-EP4 (P35408 whole entry): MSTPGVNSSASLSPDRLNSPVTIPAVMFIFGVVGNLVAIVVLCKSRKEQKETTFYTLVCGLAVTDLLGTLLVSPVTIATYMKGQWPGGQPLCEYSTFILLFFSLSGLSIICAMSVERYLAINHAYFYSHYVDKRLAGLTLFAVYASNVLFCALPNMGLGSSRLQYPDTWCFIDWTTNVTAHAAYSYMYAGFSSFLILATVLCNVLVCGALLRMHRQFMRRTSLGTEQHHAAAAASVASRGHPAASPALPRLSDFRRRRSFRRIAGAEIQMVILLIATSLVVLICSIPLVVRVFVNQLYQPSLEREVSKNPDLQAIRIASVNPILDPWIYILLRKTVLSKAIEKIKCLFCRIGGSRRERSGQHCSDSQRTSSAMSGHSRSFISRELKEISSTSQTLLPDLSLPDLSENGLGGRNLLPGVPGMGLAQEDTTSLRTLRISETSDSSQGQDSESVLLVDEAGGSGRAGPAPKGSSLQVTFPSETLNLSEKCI
Protocol: Compounds of the invention were tested in an EP4 receptor binding assay of the following protocol which allows the determination of the affinity of the test compounds for the EP4 receptor.

T1 sequence (P43116 whole entry): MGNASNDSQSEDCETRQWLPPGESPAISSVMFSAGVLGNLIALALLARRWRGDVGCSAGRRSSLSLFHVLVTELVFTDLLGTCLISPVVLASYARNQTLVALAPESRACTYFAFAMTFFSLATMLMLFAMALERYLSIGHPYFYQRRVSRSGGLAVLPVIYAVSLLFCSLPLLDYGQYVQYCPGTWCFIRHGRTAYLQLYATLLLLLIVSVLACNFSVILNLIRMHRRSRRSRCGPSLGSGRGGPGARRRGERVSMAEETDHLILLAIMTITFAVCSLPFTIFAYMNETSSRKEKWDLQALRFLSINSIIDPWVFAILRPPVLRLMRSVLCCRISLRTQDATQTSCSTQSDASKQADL

| Ki (h-EP2 [1]) | EC50 (h-EP2 [2]) | Ki (h-EP4) | Compound |
| --- | --- | --- | --- |
| 5600 nM | 48 nM | – | CCCCC[C@@H](O)CCCN1CC[C@@H](Cl)C1C/C=C\CCCC(=O)O (stereo in doubt) [Example 1, (5Z)7-[(2R,3R)-3-Chloro-1-(4-hydroxynonyl)-pyrrolidin-2-yl]-hept-5-enoic acid] |
| 3500 nM | 250 nM | – | CCCCC1(C(O)CCCN2CC[C@@H](Cl)[C@@H]2CCc2ccc(C(=O)O)cc2)CCC1 (stereo in doubt) [Example 11, 4-(2-{1-[4-(1-butylcyclobutyl)-4-hydroxybutyl]-3-chloropyrrolidin-2-yl}ethyl)benzoic acid] |
| 10000 nM | 370 nM | 5 nM | Cc1cccc(CC(O)CCN2CCC(=O)[C@@H]2C/C=C\CCCC(=O)O)c1 (stereo partly drawn) [Example 13, (5Z)-7-{(2S)-1-[3-hydroxy-4-(3-methylphenyl)butyl]-3-oxopyrrolidin-2-yl}hept-5-enoic acid] |
| 11000 nM | 8500 nM | 156 nM | (5Z)-7-{(trans-2,3)-3-Chloro-1-[(4S and 4 R)-hydroxy-4-(1-butylcyclobutyl)butyl]pyrrolidin-2-yl}hept-5-enoic acid [Example 15] |
